From ChEMBL document CHEMBL1201862, “PubChem BioAssay data set” (2004)
Where a name gives a salt, the structure may show the parent alone.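 Results reflect a 48-hour exposure of cells in 96-well plates to compound at five concentrations. GI50 marks 50% less growth.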 Active and inactive are the calls of the source. No stated cut-off is given here; in the data, active = GI50 up to about 1.1 µM and inactive = higher.

Experiments:
Assay in all cases: DTP human tumour cell line panel, 48 h
SN12C = system: SN12C
SNB-75 = system: SNB-75
MOLT-4 = system: MOLT-4
SF-268 = system: SF-268
PC-3 = system: PC-3
UACC-257 = system: UACC-257
SK-MEL-2 = system: SK-MEL-2
T47D = system: T47D
EKVX = system: EKVX
MDA-N = system: MDA-N
A549 = system: A549
KM12 = system: KM12
OVCAR-3 = system: OVCAR-3
SR = system: SR
COLO 205 = system: COLO 205
NCI-H226 = system: NCI-H226
HCT-15 = system: HCT-15
ACHN = system: ACHN
A498 = system: A498
SK-OV-3 = system: SK-OV-3

| Compound | GI50 (SN12C) | GI50 (SNB-75) | GI50 (MOLT-4) | GI50 (SF-268) | GI50 (PC-3) | GI50 (UACC-257) | GI50 (SK-MEL-2) | GI50 (T47D) | GI50 (EKVX) | GI50 (MDA-N) | GI50 (A549) | GI50 (KM12) | GI50 (OVCAR-3) | GI50 (SR) | GI50 (COLO 205) | GI50 (NCI-H226) | GI50 (HCT-15) | GI50 (ACHN) | GI50 (A498) | GI50 (SK-OV-3) |
| --- | --- | --- | --- | --- | --- | --- | --- | --- | --- | --- | --- | --- | --- | --- | --- | --- | --- | --- | --- | --- |
| C/C1=C\CC[C@@]2(C)O[C@@H]2C[C@@H](C2(C)CO2)CC/C(C)=C/CC1 (stereo not given in full) | 17.7 µM (inactive) | 26.2 µM (inactive) | 47.2 µM (inactive) | 17.1 µM (inactive) | 22 µM (inactive) | 36.8 µM (inactive) | 27.9 µM (inactive) | 32.5 µM (inactive) | 13.8 µM (inactive) | 25.6 µM (inactive) | 16.1 µM (inactive) | 17.5 µM (inactive) | 23.8 µM (inactive) | 33 µM (inactive) | 15.6 µM (inactive) | 15.2 µM (inactive) | 10.3 µM | 17.9 µM (inactive) | > 100 µM (inactive) | 49.3 µM (inactive) |
| CCOc1cnc(C(O)(c2ccccc2)c2ccccc2)o1 | > 100 µM (inactive) | > 100 µM (inactive) | > 100 µM (inactive) | > 100 µM (inactive) | > 100 µM (inactive) | > 100 µM (inactive) | > 100 µM (inactive) | > 100 µM (inactive) | > 100 µM (inactive) | > 100 µM (inactive) | > 100 µM (inactive) | > 100 µM (inactive) | > 100 µM (inactive) | > 100 µM (inactive) | > 100 µM (inactive) | > 100 µM (inactive) | 77.1 µM | > 100 µM (inactive) | > 100 µM (inactive) | > 100 µM (inactive) |
| CCCCCCn1c(SC)nc(COC(=O)NC)c1COC(=O)NC | 16.7 µM (inactive) | 14.6 µM (inactive) | 13 µM (inactive) | 14.6 µM (inactive) | 15.1 µM (inactive) | 19.4 µM (inactive) | 25.8 µM (inactive) | 17.7 µM (inactive) | 13.9 µM (inactive) | 19.2 µM (inactive) | 16.4 µM (inactive) | 18.2 µM (inactive) | 17.9 µM (inactive) | 19.7 µM (inactive) | 15.8 µM (inactive) | 17.2 µM (inactive) | 32.4 µM | 16.6 µM (inactive) | 16.3 µM (inactive) | 19 µM (inactive) |
| CCOC(=O)c1ccc(-n2cnc(-c3ccc([N+](=O)[O-])cc3)c2)cc1 | > 100 µM (inactive) | 40.6 µM (inactive) | > 100 µM (inactive) | 56.2 µM (inactive) | > 100 µM (inactive) | > 100 µM (inactive) | > 100 µM (inactive) | 95.7 µM (inactive) | > 100 µM (inactive) | > 100 µM (inactive) | > 100 µM (inactive) | > 100 µM (inactive) | 79.8 µM (inactive) | > 100 µM (inactive) | > 100 µM (inactive) | > 100 µM (inactive) | > 100 µM | > 100 µM (inactive) | > 100 µM (inactive) | > 100 µM (inactive) |
| N=C(N)c1ccc(-c2ccc(-c3ccc(C(=N)N)cc3)o2)cc1 [FURAMIDINE HYDROCHLORIDE] | 12.6 µM (inactive) | 42 µM (inactive) | 27.4 µM (inactive) | 45.3 µM (inactive) | 39.5 µM (inactive) | 27.9 µM (inactive) | 23.8 µM (inactive) | 23.4 µM (inactive) | 28.4 µM (inactive) | 27.5 µM (inactive) | 34.2 µM (inactive) | 22.5 µM (inactive) | > 100 µM (inactive) | 29.8 µM (inactive) | 12.4 µM (inactive) | 69.2 µM (inactive) | 40.9 µM | 39.6 µM (inactive) | 63.7 µM (inactive) | > 100 µM (inactive) |
| O=C(O[C@H]1[C@@H](O)[C@H](n2cnc3c(Cl)ncnc32)O[C@@H]1COC(c1ccccc1)(c1ccccc1)c1ccccc1)c1ccccc1 | 11.9 µM (inactive) | 45.4 µM (inactive) | 3.04 µM (inactive) | 15.4 µM (inactive) | 11 µM (inactive) | 14.7 µM (inactive) | 21.2 µM (inactive) | 3.98 µM (inactive) | 14.8 µM (inactive) | 35.9 µM (inactive) | 56.1 µM (inactive) | 16.1 µM (inactive) | 14.2 µM (inactive) | 2.67 µM (inactive) | 15.9 µM (inactive) | 13 µM (inactive) | 17.4 µM | 15.7 µM (inactive) | 17.2 µM (inactive) | 71 µM (inactive) |
| CCSCCCC(=O)O | > 100 µM (inactive) | > 100 µM (inactive) | > 100 µM (inactive) | > 100 µM (inactive) | > 100 µM (inactive) | > 100 µM (inactive) | > 100 µM (inactive) | > 100 µM (inactive) | > 100 µM (inactive) | > 100 µM (inactive) | > 100 µM (inactive) | > 100 µM (inactive) | > 100 µM (inactive) | > 100 µM (inactive) | > 100 µM (inactive) | > 100 µM (inactive) | > 100 µM | > 100 µM (inactive) | > 100 µM (inactive) | > 100 µM (inactive) |
